Activity calls are given as the source filed them.
How the values were obtained:
Paired box protein Pax-8 = Paired box protein Pax-8 (Homo sapiens, UniProt Q06710); assay: PAX8 transcriptional activity inhibition in RMG-I – RMG-I cells, luciferase, cherry-pick, dose response (AID 687027); type: functional, cell-based;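 also: luciferase reporter driven by Pax8 target thyroperoxidase promoter measured by SteadyGlo luminescence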
H9c2 = assay: cells; type: functional, cell-based; details: Rattus norvegicus, H9c2, Myocardium;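 also: confirmatory concentration-response retest of ultra-high-throughput screening hits for modulation of myocardial damage; cell death induced by hydrogen peroxide oxidative stress; compound pretreatment for 60 min then peroxide exposure for 2 h; potency is for protecting the cells against peroxide damage rather than for killing them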
[1] = general cell-killing toxicity readout – plate reader, dry powder samples, cytotoxicity control for PAX8 inhibitor project, dose response (AID 743021); type: functional, cell-based
[2] = target: T1, Serine/threonine-protein phosphatase (Candida dubliniensis (strain CD36 / CBS 7987 / NCPF 3949 / NRRLY-17841) (Yeast), UniProt B9W6M3); assay: blockers of CaCl2-induced CDRE-lacZ signaling – S. cerevisiae, luminescence, secondary, dose response (AID 2388); type: functional, cell-based;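 also: yeast reporter cells carrying a calcineurin-responsive lacZ construct stimulated with calcium chloride; luminescent beta-galactosidase reporter signal in whole cells rather than isolated phosphatase activity; potency for inhibition where a drop in reporter signal means calcineurin blockade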
T1 sequence (B9W6M3 whole entry): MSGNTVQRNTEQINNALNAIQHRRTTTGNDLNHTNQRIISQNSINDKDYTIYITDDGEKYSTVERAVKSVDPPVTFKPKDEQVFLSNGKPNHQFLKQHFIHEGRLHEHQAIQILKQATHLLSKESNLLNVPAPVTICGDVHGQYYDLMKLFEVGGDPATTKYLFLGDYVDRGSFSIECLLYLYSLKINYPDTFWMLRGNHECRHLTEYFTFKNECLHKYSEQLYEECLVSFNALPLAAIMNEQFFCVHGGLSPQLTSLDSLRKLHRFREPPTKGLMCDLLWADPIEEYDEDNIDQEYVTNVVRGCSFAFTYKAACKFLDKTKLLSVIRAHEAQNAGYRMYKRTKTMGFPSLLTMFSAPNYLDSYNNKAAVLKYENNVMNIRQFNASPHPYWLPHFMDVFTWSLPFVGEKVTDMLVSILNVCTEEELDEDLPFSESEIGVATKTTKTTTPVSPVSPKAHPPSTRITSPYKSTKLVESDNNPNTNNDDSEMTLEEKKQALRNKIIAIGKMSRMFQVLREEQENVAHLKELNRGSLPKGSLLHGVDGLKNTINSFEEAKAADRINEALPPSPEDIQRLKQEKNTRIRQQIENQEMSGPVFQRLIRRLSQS

[3] = NIH-3T3 fibroblast cytotoxicity, dose response, cytotoxicity control, cell-based, fluorescence, Alamar Blue, secondary assay (AID 2327); type: functional;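 also: NIH-3T3 mouse fibroblasts cultured with fluconazole at 8 µg/mL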
[4] = target: ATP-dependent molecular chaperone HSP82 (Candida albicans (strain WO-1) (Yeast), UniProt C4YTQ8); assay: steroid-induced GRE reporter decrease in yeast – S. cerevisiae, luminescence, Hsp90 inhibitor project, dose response (AID 2400); type: functional, cell-based;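 also: beta-galactosidase luminescence from glucocorticoid response element reporter as proxy for Hsp90 function; inhibitor potency where signal loss means Hsp90 inhibition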
ATP-dependent molecular chaperone HSP82, sequence (C4YTQ8 whole entry): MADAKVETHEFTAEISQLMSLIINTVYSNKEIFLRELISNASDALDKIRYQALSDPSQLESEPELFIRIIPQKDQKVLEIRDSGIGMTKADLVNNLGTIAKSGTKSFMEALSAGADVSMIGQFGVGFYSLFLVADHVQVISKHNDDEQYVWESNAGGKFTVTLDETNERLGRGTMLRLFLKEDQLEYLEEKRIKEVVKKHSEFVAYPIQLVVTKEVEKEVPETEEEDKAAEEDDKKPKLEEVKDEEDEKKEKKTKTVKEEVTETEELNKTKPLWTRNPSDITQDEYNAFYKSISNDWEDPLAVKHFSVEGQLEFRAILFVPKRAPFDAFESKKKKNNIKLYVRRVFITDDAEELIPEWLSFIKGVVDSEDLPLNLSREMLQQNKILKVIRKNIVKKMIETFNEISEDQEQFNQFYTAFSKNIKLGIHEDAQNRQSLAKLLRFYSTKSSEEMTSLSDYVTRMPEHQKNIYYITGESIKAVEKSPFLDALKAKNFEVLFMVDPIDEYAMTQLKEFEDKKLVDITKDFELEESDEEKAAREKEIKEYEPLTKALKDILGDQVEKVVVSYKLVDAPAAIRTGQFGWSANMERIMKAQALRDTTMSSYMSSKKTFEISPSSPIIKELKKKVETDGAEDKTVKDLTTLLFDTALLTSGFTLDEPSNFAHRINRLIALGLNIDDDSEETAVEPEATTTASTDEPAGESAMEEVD

[5] = fluconazole-exposed Candida albicans growth modulators – fluorescence, retest, confirmation (AID 2467); type: functional, cell-based
[6] = target: 5-hydroxytryptamine receptor 2A (Mus musculus, UniProt P35363); type: functional, cell-based;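 also: CHO-K1 cells with tagged receptor and beta-arrestin; agonist potency measured as compound-induced activation of the receptor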
5-hydroxytryptamine receptor 2A, sequence (P35363 whole entry): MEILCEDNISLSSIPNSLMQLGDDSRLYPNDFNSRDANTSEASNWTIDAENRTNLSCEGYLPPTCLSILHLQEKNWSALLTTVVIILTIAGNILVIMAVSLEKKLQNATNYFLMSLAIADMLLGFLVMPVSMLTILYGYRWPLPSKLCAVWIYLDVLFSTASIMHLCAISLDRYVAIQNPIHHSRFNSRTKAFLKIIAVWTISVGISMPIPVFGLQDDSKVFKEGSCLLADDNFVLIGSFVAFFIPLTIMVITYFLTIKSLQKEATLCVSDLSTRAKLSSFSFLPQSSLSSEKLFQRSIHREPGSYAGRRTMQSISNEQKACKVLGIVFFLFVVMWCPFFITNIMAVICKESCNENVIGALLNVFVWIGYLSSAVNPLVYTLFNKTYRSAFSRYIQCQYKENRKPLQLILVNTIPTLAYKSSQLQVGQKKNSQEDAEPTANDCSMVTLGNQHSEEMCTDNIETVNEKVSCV

Mu-type opioid receptor = Mu-type opioid receptor (Homo sapiens, UniProt P35372); type: functional, cell-based;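 also: U2OS cells with beta-arrestin recruitment to OPRM1 by beta-gal complementation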
Mu-type opioid receptor, sequence (P35372 whole entry): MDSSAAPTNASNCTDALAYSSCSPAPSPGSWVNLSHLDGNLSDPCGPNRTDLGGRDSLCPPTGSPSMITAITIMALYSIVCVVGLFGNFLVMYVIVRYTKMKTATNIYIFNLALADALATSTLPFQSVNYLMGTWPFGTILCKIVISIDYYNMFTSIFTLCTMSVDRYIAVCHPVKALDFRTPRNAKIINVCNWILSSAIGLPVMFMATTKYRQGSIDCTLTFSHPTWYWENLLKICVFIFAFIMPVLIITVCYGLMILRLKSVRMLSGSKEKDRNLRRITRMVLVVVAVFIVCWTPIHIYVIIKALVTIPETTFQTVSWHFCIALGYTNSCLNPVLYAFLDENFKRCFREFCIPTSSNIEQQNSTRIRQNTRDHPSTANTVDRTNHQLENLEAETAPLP

Caspase-6 = target: T2, Caspase-6 (Homo sapiens, UniProt P55212); assay: inhibition of CASP6 peptide cleavage – biochemical, VEID-R110 fluorescence, cherry-pick, dose response (AID 720632)
T2 sequence (P55212 whole entry): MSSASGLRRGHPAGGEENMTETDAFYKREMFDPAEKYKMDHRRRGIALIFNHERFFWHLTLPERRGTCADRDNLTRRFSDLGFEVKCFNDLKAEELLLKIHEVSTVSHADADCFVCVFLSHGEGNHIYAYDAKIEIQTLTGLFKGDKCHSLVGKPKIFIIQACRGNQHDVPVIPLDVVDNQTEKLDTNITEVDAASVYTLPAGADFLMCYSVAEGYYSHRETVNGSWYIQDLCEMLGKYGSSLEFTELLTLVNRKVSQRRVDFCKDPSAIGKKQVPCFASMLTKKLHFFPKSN

Genome polyprotein = Genome polyprotein (dengue virus type 2, UniProt P29990); assay: flavivirus cap methylation enzyme inhibition – biochemical, confirmation dose response, primary screen (AID 588689); type: functional
Genome polyprotein, sequence (P29990 2492-3391 limits assumed): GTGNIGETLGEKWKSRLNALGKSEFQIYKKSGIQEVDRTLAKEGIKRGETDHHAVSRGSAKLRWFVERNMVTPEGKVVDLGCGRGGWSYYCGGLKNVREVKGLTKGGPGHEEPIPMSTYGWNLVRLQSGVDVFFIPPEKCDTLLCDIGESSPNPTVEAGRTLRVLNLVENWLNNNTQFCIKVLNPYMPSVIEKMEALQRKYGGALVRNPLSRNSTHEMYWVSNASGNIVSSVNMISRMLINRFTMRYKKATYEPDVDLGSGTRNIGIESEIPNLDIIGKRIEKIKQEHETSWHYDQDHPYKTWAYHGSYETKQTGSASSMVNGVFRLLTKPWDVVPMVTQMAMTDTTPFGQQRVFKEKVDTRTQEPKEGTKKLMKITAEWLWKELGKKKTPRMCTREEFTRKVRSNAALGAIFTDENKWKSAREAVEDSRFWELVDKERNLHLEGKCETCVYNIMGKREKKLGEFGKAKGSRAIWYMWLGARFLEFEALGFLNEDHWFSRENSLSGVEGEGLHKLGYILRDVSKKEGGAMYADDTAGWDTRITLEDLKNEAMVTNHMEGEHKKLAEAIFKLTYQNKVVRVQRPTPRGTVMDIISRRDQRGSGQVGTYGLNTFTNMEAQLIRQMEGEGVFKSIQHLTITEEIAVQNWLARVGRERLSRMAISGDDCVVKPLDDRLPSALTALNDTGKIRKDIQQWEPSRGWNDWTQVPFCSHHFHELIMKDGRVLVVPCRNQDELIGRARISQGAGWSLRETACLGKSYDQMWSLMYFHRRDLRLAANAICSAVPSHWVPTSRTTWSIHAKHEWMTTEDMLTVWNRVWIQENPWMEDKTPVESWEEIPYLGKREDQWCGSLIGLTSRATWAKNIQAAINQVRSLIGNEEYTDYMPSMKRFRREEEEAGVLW

[7] = target: Heat shock protein HSP 90-alpha (Homo sapiens, UniProt P07900); type: functional, organism-based
Vero [8] = assay: viability of Vero cells under compound – cytotoxicity control for flavivirus capping enzyme inhibitors (AID 588742); type: functional; details: Chlorocebus sabaeus
Vero [9] = assay: cells; type: functional; details: Chlorocebus sabaeus
[10] = target: SWI/SNF-related matrix-associated actin-dependent regulator of chromatin subfamily A member 2 (Homo sapiens, UniProt P51531); assay: Luminescence-based cell-based high throughput dose response assay to identify activators of the function of SWI/SNF related, matrix associated, actin dependent regulator of chromatin, subfamily a, member 2 (SMARCA2, BRM).; type: functional
SWI/SNF-related matrix-associated actin-dependent regulator of chromatin subfamily A member 2, sequence (P51531 whole entry): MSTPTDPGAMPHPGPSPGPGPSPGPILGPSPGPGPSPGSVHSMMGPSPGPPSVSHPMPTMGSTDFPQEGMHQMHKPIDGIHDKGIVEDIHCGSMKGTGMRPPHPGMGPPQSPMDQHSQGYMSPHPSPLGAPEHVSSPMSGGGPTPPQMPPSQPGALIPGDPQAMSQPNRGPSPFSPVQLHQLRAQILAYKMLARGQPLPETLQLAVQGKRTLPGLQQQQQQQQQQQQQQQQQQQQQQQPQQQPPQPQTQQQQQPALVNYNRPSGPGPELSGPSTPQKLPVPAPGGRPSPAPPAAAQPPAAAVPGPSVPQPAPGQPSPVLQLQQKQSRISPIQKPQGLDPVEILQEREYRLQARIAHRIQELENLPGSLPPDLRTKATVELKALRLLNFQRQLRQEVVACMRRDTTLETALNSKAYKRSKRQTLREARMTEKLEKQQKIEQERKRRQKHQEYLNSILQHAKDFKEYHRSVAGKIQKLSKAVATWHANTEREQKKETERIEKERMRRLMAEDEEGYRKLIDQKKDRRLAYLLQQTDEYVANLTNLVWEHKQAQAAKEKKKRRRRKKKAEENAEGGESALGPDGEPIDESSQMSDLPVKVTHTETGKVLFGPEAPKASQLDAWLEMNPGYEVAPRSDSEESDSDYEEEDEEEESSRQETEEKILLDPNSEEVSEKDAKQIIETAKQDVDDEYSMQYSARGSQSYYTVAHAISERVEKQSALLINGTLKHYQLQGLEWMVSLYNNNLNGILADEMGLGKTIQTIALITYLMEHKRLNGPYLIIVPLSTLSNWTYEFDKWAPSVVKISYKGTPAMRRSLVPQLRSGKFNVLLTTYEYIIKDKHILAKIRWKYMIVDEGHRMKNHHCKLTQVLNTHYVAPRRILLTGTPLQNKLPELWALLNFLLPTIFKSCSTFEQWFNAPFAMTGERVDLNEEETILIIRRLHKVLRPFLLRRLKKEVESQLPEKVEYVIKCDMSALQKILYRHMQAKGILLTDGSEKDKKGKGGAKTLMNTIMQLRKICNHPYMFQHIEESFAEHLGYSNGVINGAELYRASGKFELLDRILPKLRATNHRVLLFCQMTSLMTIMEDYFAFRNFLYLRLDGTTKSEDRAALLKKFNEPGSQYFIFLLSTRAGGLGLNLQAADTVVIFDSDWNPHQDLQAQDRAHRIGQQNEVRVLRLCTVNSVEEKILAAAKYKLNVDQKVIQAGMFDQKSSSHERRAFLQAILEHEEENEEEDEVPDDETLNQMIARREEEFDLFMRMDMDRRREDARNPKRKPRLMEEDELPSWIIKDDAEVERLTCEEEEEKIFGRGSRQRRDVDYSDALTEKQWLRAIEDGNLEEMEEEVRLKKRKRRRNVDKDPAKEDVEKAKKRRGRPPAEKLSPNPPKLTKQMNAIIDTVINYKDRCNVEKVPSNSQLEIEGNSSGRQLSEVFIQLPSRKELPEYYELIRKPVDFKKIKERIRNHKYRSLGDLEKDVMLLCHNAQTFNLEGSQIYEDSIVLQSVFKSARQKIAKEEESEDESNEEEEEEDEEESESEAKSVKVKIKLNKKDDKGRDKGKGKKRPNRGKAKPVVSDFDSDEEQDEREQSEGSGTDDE

[11] = Counterscreen for activators of the function of SWI/SNF related, matrix associated, actin dependent regulator of chromatin, subfamily a, member 2 (SMARCA2, BRM): Luminescence-based cell-based high throughput dose response assay to identify non-selective compounds using the VP16 reporter assay.; type: functional

Paired box protein Pax-8, sequence (Q06710 whole entry): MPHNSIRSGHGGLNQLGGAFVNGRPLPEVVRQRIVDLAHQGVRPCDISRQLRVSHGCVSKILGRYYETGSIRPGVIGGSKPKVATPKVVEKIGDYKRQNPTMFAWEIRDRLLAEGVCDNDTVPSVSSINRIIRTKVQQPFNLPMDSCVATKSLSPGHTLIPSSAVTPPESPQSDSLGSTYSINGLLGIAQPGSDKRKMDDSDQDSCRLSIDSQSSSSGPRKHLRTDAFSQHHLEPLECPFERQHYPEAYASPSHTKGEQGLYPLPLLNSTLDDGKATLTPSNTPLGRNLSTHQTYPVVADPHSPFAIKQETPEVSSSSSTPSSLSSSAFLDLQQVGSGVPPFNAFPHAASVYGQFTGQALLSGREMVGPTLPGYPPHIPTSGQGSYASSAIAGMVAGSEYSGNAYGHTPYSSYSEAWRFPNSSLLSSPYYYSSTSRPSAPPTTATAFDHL

O=C(C(=O)N(Cc1ccccc1)Cc1ccccc1)c1c(-c2ccccc2)[nH]c2ccccc12
AC50 (Paired box protein Pax-8): 7.45 µM (active)
IC50 (H9c2): > 79 µM (inactive)
AC50 [1]: 44.5 µM (active)

NC(=O)c1c(NC(=O)c2ccco2)sc2c1CCC2
EC50 [2]: > 180 µM (inactive)
EC50 [3]: > 150 µM (inactive)
EC50 [4]: > 150 µM (inactive)
EC50 [5]: 654 nM (inconclusive)

CCN(CC)C(=O)N[C@H]1C[C@@H]2c3cccc4[nH]cc(c34)C[C@H]2N(C)C1 [TERGURIDE]
EC50 [6]: 3.8 nM (active)
EC50 (Mu-type opioid receptor): 92.5 µM (inactive)

O=C1CN(C(=O)COC(=O)c2ccc([N+](=O)[O-])o2)c2ccccc2N1
AC50 (Caspase-6): 15.1 µM (active)

Cc1cc(C)cc(NC(=O)Cc2ccc(S(=O)(=O)N3CCCC3)s2)c1
AC50 (Caspase-6): 24.2 µM (active)

O=C(c1cc2c(s1)CCCCC2)N1CCN(c2ncccn2)CC1
EC50 [2]: > 180 µM (inactive)
EC50 [3]: > 160 µM (inconclusive)
EC50 [4]: 23.9 µM (active)
EC50 [5]: 1200 nM (active)

Oc1c(Cl)cccc1Cc1cc(Cl)cc(Cl)c1O
IC50 (Genome polyprotein): 45.5 µM (active)
AC50 [7]: 3.05 µM (active)
CC50 (Vero [8]): 19.3 µM (active)

NC(=O)c1ccsc1NC(=O)c1ccc([N+](=O)[O-])o1
AC50 (Paired box protein Pax-8): 3.8 µM (active)
IC50 (H9c2): > 79 µM (inactive)
CC50 (Vero [9]): 11.7 µM (active)
EC50 [10]: > 91.1 µM (inactive)
EC50 [11]: > 91.1 µM (inactive)

Reference: ChEMBL document CHEMBL1201862, “PubChem BioAssay data set” (2004)
